Laboratory results: PMC11249637, “Interaction of the Atypical Tetracyclines Chelocardin and Amidochelocardin with Renal Drug Transporters” (ACS Pharmacology & Translational Science, 2024)

Tests used:
mOat2 = molecular target: T1, mOat2 (Mus musculus, UniProt Q91WU2); experiment: Two-point inhibition of mOat2-mediated cGMP uptake in transfected HEK293 cells; type: in vitro ADME; conditions: cGMP 10 μM, 5 min, read-out: inhibitory effect on mOat2
T1 construct: expressed in transfected cells; host or cells: HEK293
T1 sequence (Q91WU2 1-540): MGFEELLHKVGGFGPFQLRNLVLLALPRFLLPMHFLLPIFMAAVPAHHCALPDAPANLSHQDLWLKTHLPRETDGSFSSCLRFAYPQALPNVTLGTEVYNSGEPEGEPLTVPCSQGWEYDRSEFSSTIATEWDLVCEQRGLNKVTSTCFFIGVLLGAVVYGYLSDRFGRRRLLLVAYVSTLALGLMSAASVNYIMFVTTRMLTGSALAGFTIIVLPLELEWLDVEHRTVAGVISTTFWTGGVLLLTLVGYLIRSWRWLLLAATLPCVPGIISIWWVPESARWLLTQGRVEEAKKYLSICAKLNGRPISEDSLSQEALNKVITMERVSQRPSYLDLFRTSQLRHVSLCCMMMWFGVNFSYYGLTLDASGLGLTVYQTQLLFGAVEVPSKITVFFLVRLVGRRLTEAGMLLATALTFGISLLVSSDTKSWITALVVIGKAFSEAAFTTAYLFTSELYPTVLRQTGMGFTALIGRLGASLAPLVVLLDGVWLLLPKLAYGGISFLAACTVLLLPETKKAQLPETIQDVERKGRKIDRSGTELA
Description: Well-characterized mOct1-, mOct2-, mOat1-, mOat2-, mOat3-, mMate1-, hOAT1-, hOAT3-, hOAT4-, hMRP2-, mMdr1a- and mMdr1b-transfected HEK293 cells and the respective vector-transfected control HEK293 cells were used.[42],[51],[52] All HEK293 cells (transporter-transfected and vector-transfected) were cultured in DMEM (Sigma, high glucose, 10% FBS, 1% penicillin (10,000 Units/mL)/streptomycin (10 mg/mL)) at 37°C under 5% CO2 in humidified atmosphere. The cells were routinely checked for the absence of mycoplasma infection. For the preparation of HEK293 cell monolayers, 24-well plates were pretreated with a poly-D-lysine hydrobromide solution (0.1 mg/mL). […]
For the uptake assay, the growth medium was aspirated, and each well was rinsed three times with 0.5 mL of incubation buffer (HBSS supplemented with 20 mM HEPES, pH 7.4) and incubated for 20 min at 37 °C. […] Cells were solubilized with 0.6 mL of 1N NaOH overnight and transferred into scintillation vials. ^3H and ^14C contents were measured after the addition of 2.5 mL of scintillator in a liquid scintillation counter.
The cellular protein amount was determined in parallel for each cell line (vector- and transporter-transfected) from six wells in a different 24-well reference plate using the Bradford method. […]
(§1) The inhibitory effect (I(%)) was calculated according to the formula: [drawing 5] […]

hOAT4 = molecular target: T2, hOAT4 (Homo sapiens, UniProt Q9NSA0); experiment: Two-point inhibition of hOAT4-mediated ES uptake in transfected HEK293 cells; type: in vitro ADME; conditions: ES 1 μM, 1 min; for inhibitory effect on hOAT4 (in words): 1 and 10 μM; for enhanced uptake of substrate by hOAT4: at 10 μM
T2 construct: expressed in transfected cells; host or cells: HEK293
T2 sequence (Q9NSA0 1-550): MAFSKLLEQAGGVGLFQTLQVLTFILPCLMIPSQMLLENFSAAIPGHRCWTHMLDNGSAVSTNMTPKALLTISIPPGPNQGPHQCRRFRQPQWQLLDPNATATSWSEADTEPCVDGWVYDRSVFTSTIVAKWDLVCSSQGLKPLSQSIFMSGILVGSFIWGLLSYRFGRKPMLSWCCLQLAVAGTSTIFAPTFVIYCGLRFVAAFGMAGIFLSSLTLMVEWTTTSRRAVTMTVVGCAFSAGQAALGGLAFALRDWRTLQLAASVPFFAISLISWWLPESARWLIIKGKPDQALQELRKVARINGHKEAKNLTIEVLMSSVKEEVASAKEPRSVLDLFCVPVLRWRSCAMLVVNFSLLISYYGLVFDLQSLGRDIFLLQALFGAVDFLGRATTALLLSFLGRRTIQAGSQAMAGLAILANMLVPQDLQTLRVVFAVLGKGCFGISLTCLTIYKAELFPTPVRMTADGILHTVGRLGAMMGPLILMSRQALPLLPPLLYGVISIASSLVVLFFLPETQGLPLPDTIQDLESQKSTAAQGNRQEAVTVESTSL
Description: Well-characterized mOct1-, mOct2-, mOat1-, mOat2-, mOat3-, mMate1-, hOAT1-, hOAT3-, hOAT4-, hMRP2-, mMdr1a- and mMdr1b-transfected HEK293 cells and the respective vector-transfected control HEK293 cells were used.[42],[51],[52] All HEK293 cells (transporter-transfected and vector-transfected) were cultured in DMEM (Sigma, high glucose, 10% FBS, 1% penicillin (10,000 Units/mL)/streptomycin (10 mg/mL)) at 37°C under 5% CO2 in humidified atmosphere. The cells were routinely checked for the absence of mycoplasma infection. For the preparation of HEK293 cell monolayers, 24-well plates were pretreated with a poly-D-lysine hydrobromide solution (0.1 mg/mL). Each well was coated with 0.5 mL of poly-D-lysine solution and incubated for at least 15 min. After complete removal of the solution, the plates were dried for 30 min. Cells (vector-transfected and transporter-transfected) treated with trypsin were immediately seeded into 24-well plates and cultured for 3 days before being used for transport experiments.
For the uptake assay, the growth medium was aspirated, and each well was rinsed three times with 0.5 mL of incubation buffer (HBSS supplemented with 20 mM HEPES, pH 7.4) and incubated for 20 min at 37 °C. Afterward, buffers were removed, and 200 μL of the incubation buffer containing a radiolabeled substrate and the nonlabeled CHD and CDCHD or reference inhibitor (Table S1), respectively, was added to each well and incubated at 37 °C for designated time intervals. After incubation, uptake was terminated by aspirating the reaction mixture and washing the cells three times with 0.4 mL of ice-cold incubation buffer. Cells were solubilized with 0.6 mL of 1N NaOH overnight and transferred into scintillation vials. ^3H and ^14C contents were measured after the addition of 2.5 mL of scintillator in a liquid scintillation counter.
The cellular protein amount was determined in parallel for each cell line (vector- and transporter-transfected) from six wells in a different 24-well reference plate using the Bradford method. For the two-point inhibition assays, each, CHD and CDCHD, was added in two single concentrations of 1 and 10 μM to characterize their inhibitory potential. Incubation was terminated after 1 min. All experiments were conducted in triplicate for every transporter.
The ES incubation buffer contained ^3H-ES and nonlabeled ES in a final concentration of 1 μM. Inhibition of hOAT4-mediated ES uptake by 10 μM BSP was performed as a control experiment.
as §1

[1] = design: method as in PMID 38047701; conditions: PK samples; cited from earlier work

Cc1ccc2c(C)c3c(c(O)c2c1O)C(=O)[C@@]1(O)C(=O)C(C(N)=O)=C(O)[C@@H](N)[C@H]1C3 [CDCHD, amidochelocardin]
inhibition at 10 µM (mOat2): ~100% | inhibitory effect on hOAT4 (in words) (hOAT4): No inhibitory effect | enhanced uptake of substrate by hOAT4 (hOAT4): up to 40% | irreversible toxicity in histopathological analysis of kidneys and livers (in words) [1]: has not been observed

CC(=O)C1=C(O)[C@@H](N)[C@H]2Cc3c(c(O)c4c(O)c(C)ccc4c3C)C(=O)[C@@]2(O)C1=O [CHD, chelocardin]
inhibition at 10 µM (mOat2): ~100% | inhibitory effect on hOAT4 (in words) (hOAT4): No inhibitory effect | enhanced uptake of substrate by hOAT4 (hOAT4): up to 40% | irreversible toxicity in histopathological analysis of kidneys and livers (in words) [1]: has not been observed
